According to patent publication US20060183773A1, “Uses of methylphenidate derivatives” (priority 2005, published 2006):

Experiments:
Assay type in all cases: cell-based, human
JNK1 = assay: Custom AntibodyArray, TRiPS cells: JNK1; conditions: 15 μg/ml, 30 minutes
Experimental: (§1) Day 18 TRiPS cells, 1×10^6, were incubated for 30 minutes at 37° C., either with nothing added (“Nil”), with 1 μl CD3/CD28 Dynabeads (Dynal, Oslo, Norway) (“CD3/CD28 beads”) per 100,000 cells, or with CD3/CD28 beads and 15 μg/ml of the compound of formula II (Cpd II). After the incubation, the cells were lysed in Cell-Lytic Mammalian Cell Extraction Reagent (Sigma). After centrifugation to pellet cellular debris, the supernatants (cell extracts) were obtained.
(§2) The cell extracts (supernatants) were then analyzed using a Custom AntibodyArray™ manufactured by Hypromatrix Inc., Worcester, Mass., following the manufacturer's instructions. The Custom AntibodyArray™ is a nylon membrane blotted with antibodies to the proteins listed below. Briefly, the cell extracts were incubated with duplicate Custom AntibodyArray™'s for 2 hours at room temperature with slow shaking, followed by three washes with Tris buffer (150 mM NaCl, 25 mM Tris, 0.05% Tween-20, pH 7.5). HRP-labeled antibodies specific for phosphorylated-tyrosine, phosphorylated-serine and phosphorylated-threonine in Tris buffer were added, and the arrays incubated for 2 hours. After three more washes with Tris buffer, a peroxidase-reactive luminescent substrate was added. The arrays were visualized by exposure to X-ray film. Densitometry of the X-ray films was measured by scanning and computer analysis.

RAS = RAS activation pulldown assay in TRiPS cells; conditions: CD3/CD28 beads + 15 μg/ml
Experimental: (§3) Day 10 TRiPS cells, 1×10^6, were incubated with 15 μg/ml of the compound of formula II (Cpd II) for 1 hour at 37° C. Then, the cells were incubated with CD3/CD28 beads (1 μl per 100,000 cells) (obtained from Dynal) for 10 minutes at 37° C. The cells were then lysed with a mild buffer (supplied with Pierce EZ-Detect activation kit described below) to produce cell extracts. Protein concentrations of the resulting extracts were determined by bicinchoninic acid (BCA) assay (Pierce) and placed on ice for immediate use.
(§4) Pulldown assays were performed using Pierce EZ-Detect activation kits according to the manufacturer's instructions utilizing GST-RAF-1-RBD and GST-RalGDS-RBD for RAS and RAP-1 respectively. Briefly, 400 μg total protein from each extract was combined with recombinant protein and glutathione resin and incubated at 4° C. for one hour with gentle shaking. The resin was then washed to remove unbound protein and the activated RAS and RAP-1 proteins were removed by boiling in the presence of SDS-PAGE loading dye containing reducing agent. RAS and RAP-1 western blots were performed to visualize the proteins using antibodies supplied with the kit. Densitometry of the X-ray films was done by scanning and computer analysis.

JAK2 = assay: Custom AntibodyArray, TRiPS cells: JAK2; conditions: 15 μg/ml, 30 minutes
Experimental: as §1, §2

IL-2 = assay: Custom AntibodyArray, TRiPS cells: IL-2; conditions: 15 μg/ml, 30 minutes
Experimental: as §1, §2

IkB-β = assay: Custom AntibodyArray, TRiPS cells: IkB-β; conditions: 15 μg/ml, 30 minutes
Experimental: as §1, §2

T cells = assay: CD69+TCR staining of PBL, flow cytometry (T-cell activation); conditions: for CD69+TCR staining of PHA-stimulated cells: PHA alone 84%
Experimental: (§5) After this incubation, PHA was added to give a final concentration of 5 μg/ml, and the cells were incubated for an additional 72 hours at 37° C., 5% CO2. All cultures were performed in triplicate. Cells were then removed by centrifugation at 1000 rpm for 10 minutes.
(§6) The cells were further analyzed by flow cytometry. Annexin was used to determine populations of dead or dying cells. Anti-CD69 antibody was used to establish the level of cellular activation. Antibody to T-cell receptor αβ (TCR) was also used. Recombinant Annexin 5 (PE and FITC conjugates) and the antibodies were all purchase from Caltag (Burlingham, Calif.) and used following the manufacturer's recommendations.

TCR-positive cells = assay: Annexin staining of TCR-positive PBL, flow cytometry (cell death)
Experimental: as §5, §6

IL-8 [1] = assay: IL-8 release by TNFα-stimulated HUVECs, ELISA; conditions: HUVECs lot 8710, no TNFα, no additives 207.15
PI3kinaseP85 = assay: Custom AntibodyArray, TRiPS cells: PI3kinaseP85; conditions: 15 μg/ml, 30 minutes
Experimental: as §1, §2

14-3-3 = assay: Custom AntibodyArray, TRiPS cells: 14-3-3; conditions: 15 μg/ml, 30 minutes
Experimental: as §1, §2

IL-8 [2] = assay: IL-8 release by LPS-stimulated HUVECs, ELISA; conditions: for IL-8: LPS 200 ng/ml overnight + 15 μg/ml
Experimental: Passage 4 (i.e., four cell population doublings) human umbilical vein endothelial cells (HUVECs), human source lot number 9713 (obtained from ATCC), were put into the wells of a 48-well tissue culture plate at 20,000 cells/well in 500 μl of endothelial growth medium-2 (EGM-2) complete medium (but without serum or ascorbate) (obtained from Cambrex) supplemented with ITSS (insulin, transferrin and sodium selenite) (obtained from Sigma). Also, passage 4 HUVECs, human source lot number 7016 (obtained from ATCC), were put into the wells of a 48-well tissue culture plate at 20,000 cells/well in 500 μl of EGM-2 complete medium (but without serum or ascorbate) supplemented with ITSS. The following additives were added to the cells: water (vehicle control) and 15 μg/ml of the compound of formula II (Cpd II). After incubation for 1 hour at 37 ° C. and 5% CO2, lipopolysaccharide (LPS) (obtained from Sigma) was added to give a final concentration of 200 ng/ml, and the cells were incubated overnight at 37° C. and 5% CO2. After this incubation, the supernatants were collected, and the amount of IL-8 in the supernatants determined by ELISA as described in Example 4.

JNK2 = assay: Custom AntibodyArray, TRiPS cells: JNK2; conditions: 15 μg/ml, 30 minutes
Experimental: as §1, §2

RAP-1 = RAP-1 activation pulldown assay in TRiPS cells; conditions: CD3/CD28 beads + 15 μg/ml
Experimental: as §3, §4

VAV = assay: Custom AntibodyArray, TRiPS cells: VAV; conditions: 15 μg/ml, 30 minutes
Experimental: as §1, §2

RAP2 = assay: Custom AntibodyArray, TRiPS cells: RAP2; conditions: 15 μg/ml, 30 minutes
Experimental: as §1, §2

STAT4 = assay: Custom AntibodyArray, TRiPS cells: STAT4; conditions: 15 μg/ml, 30 minutes
Experimental: as §1, §2

STAT2 = assay: Custom AntibodyArray, TRiPS cells: STAT2; conditions: 15 μg/ml, 30 minutes
Experimental: as §1, §2

Question: `COC(=O)C(c1ccc(-c2ccccc2)cc1)C1CCCCN1` (stereo not shown) [Cpd II] was tested. Which “Effect of Cpd II on the protein in CD3/CD28 stimulated TRiPS cells” value (shortened to “Effect of Cpd II on the protein”) (JNK1) did it give?
Answer: Decreased level back to basal levels (Nil control)

Question: And the “inhibition of RAS protein (in words)” value (RAS)?
Answer: very strong inhibition of RAS protein

Question: What about the “Integrated Optical Density for RAS assay” value (RAS; no treatment 66.83, beads only 245.91) of the same compound?
Answer: 84.98

Question: And the “Effect of Cpd II on the protein” value (JAK2)?
Answer: Activated

Question: What about the “Effect of Cpd II on the protein” value (IL-2) of the same compound?
Answer: Decreased level back to basal levels (Nil control)

Question: What about the “Effect of Cpd II on the protein” value (IkB-β) of the same compound?
Answer: Decreased level back to basal levels (Nil control)

Question: And the “CD69+TCR staining of PHA-stimulated cells” value (T cells; PHA 5 μg/ml plus 15 μg/ml)?
Answer: 64%

Question: And the “CD69+TCR staining of PHA-stimulated cells” value (T cells; PHA 5 μg/ml plus 50 μg/ml)?
Answer: 54%

Question: And the “CD69+TCR staining (activated T cells)” value (T cells; compound alone, no PHA)?
Answer: not detected

Question: And the “Annexin staining of TCR-positive cells” value (TCR-positive cells; 15 μg/ml, no PHA, background 7.3%)?
Answer: 23%

Question: What about the “Annexin staining of TCR-positive cells” value (TCR-positive cells; 50 μg/ml, no PHA, background 7.3%) of the same compound?
Answer: 45%

Question: And the “Annexin staining of TCR-positive cells” value (TCR-positive cells; PHA 5 μg/ml plus 15 μg/ml, PHA alone 67%)?
Answer: 62%

Question: What about the “Annexin staining of TCR-positive cells” value (TCR-positive cells; PHA 5 μg/ml plus 50 μg/ml, PHA alone 67%) of the same compound?
Answer: 87%

Question: What about the “Mean IL-8” value (IL-8 [1]; 15 μg/ml) of the same compound?
Answer: 400.35 pg/mL

Question: And the “Mean IL-8” value (IL-8 [1]; 30 μg/ml)?
Answer: 0 pg/mL

Question: What about the “Effect of Cpd II on the protein” value (PI3kinaseP85) of the same compound?
Answer: Activated

Question: What about the “Effect of Cpd II on the protein” value (14-3-3) of the same compound?
Answer: Slightly decreased the level

Question: And the IL-8 (IL-8 [2]; 7016 HUVECs, LPS only 53.3)?
Answer: Below detection

Question: What about the IL-8 (IL-8 [2]; 9713 HUVECs, LPS only 485.0) of the same compound?
Answer: 49.8 pg/mL

Question: And the “IL-8 release by the 7016 HUVECs (in words)” value (IL-8 [2]; LPS 200 ng/ml + 15 μg/ml)?
Answer: complete eliminated IL-8 release

Question: What about the “decrease of IL-8 release in the 9713 HUVECs” value (IL-8 [2]; LPS 200 ng/ml + 15 μg/ml) of the same compound?
Answer: 90%

Question: And the “Effect of Cpd II on the protein” value (JNK2)?
Answer: Decreased level back to basal levels (Nil control)

Question: And the “inhibition of RAP-1 (in words)” value (RAP-1)?
Answer: appeared to inhibit RAP-1

Question: What about the “Integrated Optical Density for RAP-1 assay” value (RAP-1; no treatment 259.27, beads only 213.66) of the same compound?
Answer: 87.26

Question: What about the “Effect of Cpd II on the protein” value (VAV) of the same compound?
Answer: No effect

Question: What about the “Effect of Cpd II on the protein” value (RAP2) of the same compound?
Answer: Activated

Question: And the “Effect of Cpd II on the protein” value (STAT4)?
Answer: Activated

Question: What about the “Effect of Cpd II on the protein” value (STAT2) of the same compound?
Answer: No effect
